Test results taken from patent US11730712B2, “Functionalized long-chain hydrocarbon mono- and di-carboxylic acids and derivatives thereof, and their use for the prevention or treatment of disease” (ESPERVITA THERAPEUTICS, INC., priority 2021, dated 2023).

Tests used:
[1] = test system: mouse primary hepatocytes; assay: 14C-acetate incorporation into total lipids in primary mouse hepatocytes; format: cell-based; details: 4-hour period; for IC50: Hepatocyte, read-out: IC50 in μM, inhibition of 14C-acetate incorporation in total lipids
Procedure: After perfusion, collagen digested liver cells were re-suspended in William's E media (11 mM glucose) (Gibco) supplemented with 10% fetal bovine serum (FBS) (Gibco), 2 mM L-glutamine (Gibco) and 1% Antibiotic-Antimycotic (Gibco) mixture and seeded in white opaque 96-well plates. On the following day, the cells were serum-starved for 2 hours, then treated with 0 μM, 0.1 μM, 0.3 μM, 0.5 μM, 1 μM, 3 μM, 10 μM, and 100 μM of Compound I-32, Compound I-1, or Compound III-1 or Reference Compound (e.g., Compounds A-E and bempedoic acid) in the presence of ^14C-Acetate (1 μCi/ml, PerkinElmer). Each of Compound I-32, Compound I-1, Compound III-1, and Reference Compound was solubilized in 100% DMSO to a final concentration of 100 mM stock solution. In the experimental condition, the stock solution was diluted in serum free media (William's E media (11 mM glucose) (Gibco), 2 mM L-glutamine (Gibco) and 1% Anti biotic-Antimycotic) to yield the desired concentration of each compound. […] After 4 hours of treatment, the plates were washed two times with PBS (×1) and 100 μL microscint fluid (Microscint O, part #601361) was added in each well. Plates were wrapped with aluminum foil and were shaken at 250 rpm for 2 h. After 2 h of shaking, ^14C incorporation into lipid was determined by liquid scintillation counting using a TopCount NXT Microplate Scintillation and Luminescence Counter (Perkin Elmer).
The effects of Compound I-32. Compound I-1, and Compound III-1 on mouse primary hepatocyte lipogenesis are represented in Table 1. Each Compound was assayed at a concentration of 0 μM (vehicle control), 0.1 μM, 0.3 μM, 0.5 μM, 1 μM, 3 μM, 10 μM, and 100 μM, unless otherwise noted. Statistically significant inhibition was determined by one-way ANOVA and Dennett's post hoc test where appropriate. […] IC50 values were determined by nonlinear regression. All statistical analyses were carried out using GraphPad Prism 8 software. A p-value of less than or equal 0.05 was considered significant.

[2] = test system: Hepa1-6 murine hepatoma cells; assay: Cell proliferation assay (presto blue, 72 h); format: cell-based, mouse; details: Mus musculus, Hepa1-6, 72 h; read-out: Hepa1-6 (IC50), anti-proliferation activity
Procedure: (§1) Cell cultures. Hep3B (ATCC) and Hepa1-6 (ATCC) cells were seeded in 96-well plates at a density of 3000 cells/well with complete media. On day 2, media in each well was aspirated and replaced with 100 μl of fresh complete media and cells were treated with or without Compound I-1, Compound I-32, Compound I1-84, and Compound I-85, in a concentration dependent manner. Then, cells were incubated in an incubator for 72 h. On day 5, 10 μl of presto blue (Invitrogen, cat #A13261) cell viability reagent was added in each 96-well plate and incubated at 37° C. for 1-2 h. After incubation, fluorescence was measured with an excitation/emission wavelength of 560/590 nm.
(§2) Proliferation assay. Hep3B (ATCC) and Hepa1-6 (ATCC) cells were seeded in 96-well plates at a density of 3000 cells/well with complete media. On day 2, media in each well was aspirated and replaced with 100 μl of fresh complete media and cells were treated with/without testing compounds in a concentration dependent manner. Then, cells were incubated in an incubator for 72 h. On day 5, 10 μl of presto blue (Invitrogen, cat #A13261) cell viability reagent was added in each 96-well plate and incubated at 37° C. for 1-2 h. After incubation, fluorescence was measured with an excitation/emission wavelength of 560/590 nm. Anti-proliferative combination effects of Compound I-1 or Compound I-32 and regorafenib were determined in Hep3B and Hepa1-6 cells. Drug combination interaction was determined by the Chou-Talalay method (23), which is based on well-known equations for different reaction sequences and mechanisms, and different types of inhibition. These equations provide the theoretical basis for the combination index (CI)-isobologram equation that allows quantitative determination of drug interactions, where CI<1, =1, and >1 indicate synergism, additive effect, and antagonism, respectively. CI is calculated based on in vitro measurements implemented in the Compusyn software (www.combosyn.com), a platform for drug combinations pharmacodynamics with automated simulations. The software calculates CI based on the Fractional Inhibition (Fa), which is the potency expressed by the average effect values for each drug concentrations as determined by in vitro experiments. The dose-effect data entries are utilized for automated computerized analysis by the Compusyn software.
(§3) Data entered was obtained by in vitro experiments performed as follows: Hep3B or Hepa 1-6 cells were plated in a 96-well format and cell proliferation rates were determined as described above. Cells were treated with 5 doses of each test agent alone at the following concentrations: compounds of the invention dosed at 1, 5, 10, 50, or 100 μM for both Hep3B and Hepa1-6 cells, regorafenib dosed at 0.015, 0.075, 0.15, 0.75, and 1.5 μM for Hep3B cells or 0.05, 0.25, 0.5, 2.5, 5 μM for Hepa 1-6 cells. […]. Data are shown as Fa-CI plots where CI is the combination index and Fa is fractional inhibition. Results were indicated as mean±standard deviation (SD). All bar diagrams and line graphs were prepared using Graph Pad Prism 8 software. Drug synergy was calculated using the CompuSyn software.
(§4) Methods: Hep3B cells (supplied by ATCC) and Hepa1-6 cells (supplied by ATCC) were seeded in 96-well plates at a density of 3000 cells/well with complete media. On day 2, the media in each well was aspirated and replaced with 100 μL of fresh complete media, and the cells were treated in a concentration dependent manner with either Compound I-1, Compound I-32, Compound I-84, Compound I-85, sorafenib, lenvatinib, Compound I-1 in combination with sorafenib. Compound I-1 in combination with lenvatinib, Compound I-32 in combination with sorafenib, or Compound I-32 in combination with lenvatinib. The cells were then incubated in an incubator at 37° C. for 72 h. On day 5, 10 μL of presto blue (Invitrogen, cat #A13261) cell viability reagent was added to each 96-well plate and incubated at 37° C. for 1-2 h. […]

[3] = test system: Hep3B human hepatocarcinoma cells; assay: Cell proliferation assay (presto blue, 72 h); format: cell-based; details: Homo sapiens, Hep3B, 72 h; read-out: Hep3B (IC50), anti-proliferation activity
Procedure: as §1, §2, §3, §4

[4] = test system: Hep3B human hepatocarcinoma cells; assay: Colony formation assay (clonogenic survival, 7 days); format: cell-based; details: 168 h, read-out: Hep3B (IC50), anti-clonogenic activity
Procedure: (§5) Colony formation assay. Hep3B and Hepa1-6 cells were seeded in 12-well plates at a cell density of 1000 and 500 cells/well, respectively. On day 2, media in each well was aspirated and replaced with 1000 μl of fresh complete media and cells were treated with or without the respective drugs in an increasing concentration followed by the incubation of the cells for 7 days in an incubator.
(§6) On day 9, the media in each well was aspirated and cells were fixed with 10% formalin (500 μl) for 10 minutes at room temperature. Formalin was aspirated and the plates were washed with 1×PBS and stained with crystal violet for another 10 minutes. After 10 minutes of staining, crystal violet was […] the cells, rinsed with tap water for three times and the plates were dried overnight. Next day, colonies (>50 cells) were counted and analyzed.
(§7) Statistical tests. Results were indicated as mean±standard deviation (SD). All line graphs were prepared using Graph Pad Prism 8 software. Proliferation and clonogenics IC50 values were calculated using a non-linear regression model in Graph pad Prism 8.

[5] = test system: Hepa1-6 murine hepatoma cells; assay: as above; format: cell-based; details: Mus musculus, Hepa1-6, 168 h, read-out: Hepa1-6 (IC50), anti-clonogenic activity
Procedure: as §5, §6, §7

[6] = test system: Acyl-CoA synthetase activity in rat liver microsomes; assay: Synthesis of CoA derivatives in rat liver microsomes (LCMS); details: 1 mM substrate, 30 min sample vs 0 min
Procedure: Prior to the experiment a 1 mM working stock was created in primary hepatocyte media which was used to create the final dilution series of 0 (vehicle), 0.3, 1, 3, 10, and 30 μM. The final concentration of DMSO in all samples was <1%.
For initial validation of ACS activity using palmitate, 14C-palmitate was added (0.5 μCi/ml). Each sample was equilibrated at 37° C. while shaking for 10 min before the reaction was initiated by the addition of 0.04 mg of rat microsomal preparation (ThermoFisher Scientific. Cat #RTM-CPL, Lot #RT060-A) followed by incubation for 1, 3, 10, or 30 mins. Time 0 sample with no added microsomes was used as a control. The reaction was stopped by immediately placing the reaction tube on ice followed by the rapid addition of the reaction mixture to 2.25 ml ice-cold isopropanol/heptane/2M-sulfuric acid (40:10:1, vol/vol) in a 5 ml glass vial. […] For studies that involved measurement of 14C Palmitoyl-CoA formation, 200 μl of the lower aqueous phase was added to the 5 ml of scintillation fluid and the number of DPMs were determined by liquid scintillation counting for 5 minutes using a LS6500 Liquid Scintillation Counter (Beckman Coulter). […]
The reaction products were ionized by electrospray ion source (ESI) in positive mode. […] The resulting mass spectra were analyzed using the Xcalibur 2.1 Qualitative software package. […]

Human ACC2 = target: T1, Human ACC2 (Homo sapiens, UniProt O00763); assay: ACC2 enzymatic assay (ADP-Glo); format: biochemical; details: recombinant human ACC2 1 nM, 10 μM ATP, 10 μM acetyl CoA; Run 1-3; read-out: Compound IC50 (M) ACC2
T1 construct: FLAG (C); His (C); purchased BPS Biosciences 50201; host or cells: Baculovirus infected Sf9 cells
T1 sequence (O00763 whole entry): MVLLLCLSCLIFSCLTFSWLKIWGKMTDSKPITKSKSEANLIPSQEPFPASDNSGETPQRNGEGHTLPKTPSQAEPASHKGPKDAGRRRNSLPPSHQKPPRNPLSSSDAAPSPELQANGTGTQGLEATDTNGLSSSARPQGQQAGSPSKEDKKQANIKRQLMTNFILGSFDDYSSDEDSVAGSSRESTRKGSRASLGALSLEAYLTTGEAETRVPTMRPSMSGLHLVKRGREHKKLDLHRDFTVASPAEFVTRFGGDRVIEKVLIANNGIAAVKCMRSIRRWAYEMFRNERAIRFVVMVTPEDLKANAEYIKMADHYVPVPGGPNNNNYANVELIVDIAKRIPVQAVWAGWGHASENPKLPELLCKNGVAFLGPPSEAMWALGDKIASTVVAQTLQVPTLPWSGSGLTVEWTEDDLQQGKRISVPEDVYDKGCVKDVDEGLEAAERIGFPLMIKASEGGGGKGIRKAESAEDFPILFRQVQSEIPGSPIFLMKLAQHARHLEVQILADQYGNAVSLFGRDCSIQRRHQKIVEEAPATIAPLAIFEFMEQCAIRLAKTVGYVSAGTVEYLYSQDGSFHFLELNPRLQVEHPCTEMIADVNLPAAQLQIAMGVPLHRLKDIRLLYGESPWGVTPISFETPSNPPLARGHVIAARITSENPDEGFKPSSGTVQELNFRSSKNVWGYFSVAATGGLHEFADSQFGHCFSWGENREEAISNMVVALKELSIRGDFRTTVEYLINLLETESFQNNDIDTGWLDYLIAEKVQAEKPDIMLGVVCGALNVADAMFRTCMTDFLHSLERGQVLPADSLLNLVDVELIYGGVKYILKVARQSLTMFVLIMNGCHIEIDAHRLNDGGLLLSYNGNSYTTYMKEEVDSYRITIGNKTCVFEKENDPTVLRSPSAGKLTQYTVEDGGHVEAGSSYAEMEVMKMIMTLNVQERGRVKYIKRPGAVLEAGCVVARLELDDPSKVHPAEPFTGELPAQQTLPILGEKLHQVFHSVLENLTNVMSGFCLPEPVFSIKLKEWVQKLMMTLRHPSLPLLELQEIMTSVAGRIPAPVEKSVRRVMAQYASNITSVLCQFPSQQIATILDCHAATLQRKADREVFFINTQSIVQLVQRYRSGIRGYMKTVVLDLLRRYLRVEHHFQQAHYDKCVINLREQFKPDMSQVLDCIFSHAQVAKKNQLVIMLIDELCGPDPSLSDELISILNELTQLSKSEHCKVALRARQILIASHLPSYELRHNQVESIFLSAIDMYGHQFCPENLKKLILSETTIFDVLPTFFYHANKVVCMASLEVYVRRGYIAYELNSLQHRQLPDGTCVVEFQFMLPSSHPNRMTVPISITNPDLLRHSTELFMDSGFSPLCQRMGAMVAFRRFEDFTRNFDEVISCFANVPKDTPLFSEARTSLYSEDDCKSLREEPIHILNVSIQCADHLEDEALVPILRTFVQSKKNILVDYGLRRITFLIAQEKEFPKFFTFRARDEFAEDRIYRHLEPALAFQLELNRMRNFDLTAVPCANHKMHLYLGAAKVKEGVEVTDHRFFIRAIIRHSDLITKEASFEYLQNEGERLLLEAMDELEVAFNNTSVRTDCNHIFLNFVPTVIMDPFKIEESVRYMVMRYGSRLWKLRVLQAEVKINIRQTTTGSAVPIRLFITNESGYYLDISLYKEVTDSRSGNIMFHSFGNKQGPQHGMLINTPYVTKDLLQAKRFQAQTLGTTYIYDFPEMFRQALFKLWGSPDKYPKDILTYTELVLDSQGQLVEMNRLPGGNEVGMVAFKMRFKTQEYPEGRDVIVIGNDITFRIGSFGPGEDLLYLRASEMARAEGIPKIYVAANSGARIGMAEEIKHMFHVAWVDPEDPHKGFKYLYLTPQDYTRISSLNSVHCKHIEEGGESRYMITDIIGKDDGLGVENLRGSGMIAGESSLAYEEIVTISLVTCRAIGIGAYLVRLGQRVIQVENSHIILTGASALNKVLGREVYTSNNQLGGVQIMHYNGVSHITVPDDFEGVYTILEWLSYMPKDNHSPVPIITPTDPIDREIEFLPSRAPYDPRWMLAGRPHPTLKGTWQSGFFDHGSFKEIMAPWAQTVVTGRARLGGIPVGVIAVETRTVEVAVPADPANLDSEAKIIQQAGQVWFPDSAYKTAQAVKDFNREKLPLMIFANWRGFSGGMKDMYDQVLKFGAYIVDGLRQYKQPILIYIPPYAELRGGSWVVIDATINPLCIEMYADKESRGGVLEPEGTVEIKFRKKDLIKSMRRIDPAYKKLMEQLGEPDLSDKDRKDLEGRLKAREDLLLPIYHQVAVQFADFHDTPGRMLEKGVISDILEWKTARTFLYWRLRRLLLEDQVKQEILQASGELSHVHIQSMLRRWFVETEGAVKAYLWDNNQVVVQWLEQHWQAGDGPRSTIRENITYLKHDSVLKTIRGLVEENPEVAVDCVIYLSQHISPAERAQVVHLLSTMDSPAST
Procedure: (§8) Human ACC1 (Cat#50202 Lot #120830) and ACC2 (Cat #50201 Lot #160217) were obtained from BPS Biosciences, San Diego, Calif. 92121. Human ACC1 had C-terminal flag and His-tags with a MW of 270 KDa after purification from Baculovirus infected Sf9 cell expression system and came as a solution in 50 mM Tris-HCl, pH 8.0, 500 mM NaCl, 10% glycerol, 1 mM DTT, 100 μg/ml FLAG peptide with 70% purity. The stock concentration was 0.25 mg/ml corresponding to 0.926 μM. Human ACC2 was also purified from Baculovirus infected Sf9 expression system. […] The stock concentration was 0.1 mg/ml corresponding to 0.36 μM. The assay buffer for measuring the activity of ACC contained: 30 mM HEPES (pH 7.4), 2 mM MgCl2, 0.01% Brij35, 2 mM DTT, 1% DMSO (solvent for compound). For ACC1 and ACC2 assays, the following concentrations of substrate and cofactors were used: 12 mM NaHCO3, 10 μM acetyl CoA, 10 μM ATP, and 2 mM K-citrate. The recombinant human enzyme was used at 5 nM for ACC1 and 1 nM for ACC2. In brief, enzyme alone in the above buffer without substrate was used for background. All test materials were dissolved in 100% DMSO using acoustic technology (Echo550). The prepared solution was preincubated for 15 min followed by the addition of 5 μL/well of ADP standard. ATP was then added to start the reaction. The assay contents were spun and briefly shaken followed by incubation at room temperature for 1 h. At the end of completion of assay, 5 μL of ADP-Glo was added to each well to stop the reaction. The contents were mixed, spun and incubated at room temperature for 40 min followed by the addition of 10 μL/well of ADP detection reagent. The contents were spun, mixed and covered with plastic to measure luminescence. […] The light generated, measured in a luminometer, correlates to the amount of ADP generated in the ACC assay, which is indicative of ACC activity.
(§9) The enzyme concentrations for ACC1 and ACC2 were 5 nM and 1 nM, respectively.
Data represent nM or μM ADP produced, % Activity (relative to no inhibitor controls), and curve fits were performed by GraphPad Prism software. […]

Human ACC1 = target: T2, Human ACC1 (Homo sapiens, UniProt Q13085); assay: ACC1 enzymatic assay (ADP-Glo); format: biochemical; details: recombinant human ACC1 5 nM, 10 μM ATP, 10 μM acetyl CoA; Run 1-3; read-out: Compound IC50 (M) ACC1
T2 construct: FLAG (C); His (C); purchased BPS Biosciences 50202; host or cells: Baculovirus infected Sf9 cells
Procedure: as §8, §9
Data represent nM or μM ADP produced, % Activity (relative to no inhibitor controls), and curve fits were performed by GraphPad Prism software. The IC50 concentration-response curves were generated for both the ACC1 and ACC2 assays using recombinant human ACC.

CC(C)(CCCc1ccccc1CCCC(C)(C)C(=O)O)C(=O)O [Compound I-61, 5-[2-(4-Carboxy-4-methylpentyl)-phenyl]-2,2-dimethylpentanoic acid]
% change from control at 100 μM ± SEM(n), 14C-acetate incorporation in total lipids [1]: +44 ± 8.1 (n = 4) %

CC(C)(CCCCCC(O)CCCCCC(C)(C)C(=O)O)C(=O)O [BA, Bempedoic acid]
IC50 [1]: 0.68 µM

CC(C)(CO)CCCCCC(=O)CCCCCC(C)(C)CO [D]
IC50 [1]: 5.39 µM

CC(C)(CCCCCC(=O)CCCCCC(C)(C)C(=O)O)C(=O)O [C]
IC50 [1]: 0.46 µM

CC(C)(CCCCc1ccc(CCCCC(C)(C)CC(=O)O)cc1)CC(=O)O [Compound I-84, 7,7′-(1,4-phenylene)bis(3,3-dimethylheptanoic acid)]
IC50 [2]: > 100 µM
IC50 [3]: > 100 µM
IC50 [4]: 50.1 µM
IC50 [5]: 64.9 µM

CC(C)(CCCc1ccccc1CCCC(C)(C)C(=O)SCCNC(=O)CCNC(=O)[C@H](O)C(C)(C)COP(=O)(O)OP(=O)(O)OC[C@H]1O[C@@H](n2cnc3c(N)ncnc32)[C@H](O)[C@@H]1OP(=O)(O)O)C(=O)O [Compound I-61-CoA, 5-[2-(4-Carboxy-4-methylpentyl)-phenyl]-2,2-dimethylpentanoic acid Coenzyme A ester]
formation of the CoA derivative, detection by LCMS [6]: could not be confirmed using fragmentation analysis

CC(C)(CCCCCCCCCCCC(C)(C)C(=O)O)C(=O)O [F]
IC50 [1]: < 0.3 µM

CC(C)(CCCCC(=O)CCCCC(C)(C)C(=O)O)C(=O)O [B]
% change from control at 100 μM ± SEM(n), 14C-acetate incorporation in total lipids [1]: −69 ± 2.3 (n = 4) %
IC50 [1]: 25.6 µM

CC(C)(CCCCCCC(=O)CCCCCCC(C)(C)C(=O)O)C(=O)O [E]
IC50 [1]: 0.35 µM

O=C(c1c2ccccc2cc2ccccc12)N1CCC(N2CCC[C@@H](C(=O)N3CCOCC3)C2)CC1 [CP 640186, reference compound]
IC50 (Human ACC2): 7.81e-08 M
IC50 (Human ACC1): 2.14e-06 M

CC(C)(CCCCc1cccc(CCCCC(C)(C)CC(=O)O)c1)CC(=O)O [Compound I-85, 7,7′-(1,3-phenylene)bis(3,3-dimethylheptanoic acid)]
IC50 [2]: > 100 µM
IC50 [3]: > 100 µM
IC50 [4]: 49.1 µM
IC50 [5]: 61 µM

CC(C)(CCCc1ccc(CCCC(C)(C)C(=O)O)cc1)C(=O)O [III-1, 5,5′-(1,4-phenylene)bis(2,2-dimethylpentanoic acid)]
IC50 [1]: 27.7 µM

CC(C)(CO)CCCCC(=O)CCCCC(C)(C)CO [A]
IC50 [1]: 73.2 µM
